Reference: patent publication US6525001B1, “Substituted pyrimidine and pyridine herbicides” (Mid-American Commercialization Corporation, priority 1997, dated 2003)

Key:
Type in all cases: in vivo
[1] = test system: crabgrass (Digitaria sanguinalis); experiment: Test B pre-/postemergence; set-up: key: 0 is no effect; 10 is complete control; conditions: for Crabgrass plant response rating: Preemergence
From the text: (§1) Seeds of bedstraw (Galium aparine), blackgrass (Alopecurus myosuroides), broadleaf signalgrass (Brachiaria decumbens), cocklebur (Xanthium strumarium), corn (Zea mays), crabgrass (Digitaria sanguinalis), giant foxtail (Setaria faberii), lambsquarters (Chenopodium album), momingglory (Ipomoea hederacea), pigweed (Amaranthus retroflexus), rape (Brassica napus), soybean (Glycine max), sugar beet (Beta vulgaris), velvetleaf (Abutilon theophrasti), wheat (Triticum aestivum), wild oat (Avena fatua) and purple nutsedge (Cyperus rotundus) tubers were planted and treated preemergence with test chemicals formulated in a non-phytotoxic solvent mixture which included a surfactant.
(§2) At the same time, these crop and weed species were also treated with postemergence applications of test chemicals formulated in the same manner. Plants ranged in height from 2 to 18 cm (1- to 4-leaf stage) for postemergence treatments. Plant species in the flood test consisted of rice (Oryza sativa), smallflower flatsedge (Cyperus difformis), duck salad (Heteranthera limosa) and bamyardgrass (Echinochloa crus-galli) grown to the 2-leaf stage for testing. Treated plants and controls were maintained in a greenhouse for twelve to sixteen days, after which all species were compared to controls and visually evaluated. Plant response ratings, summarized in Table B, are based on a scale of 0 to 10 where 0 is no effect and 10 is complete control. A dash (−) response means no test result.

[2] = test system: blackgrass (Alopecurus myosuroides); experiment: Test B pre-/postemergence; set-up: key: 0 is no effect; 10 is complete control; conditions: for Blackgrass plant response rating: Preemergence
From the text: as §1, §2

[3] = test system: cocklebur (Xanthium strumarium); experiment: Test B pre-/postemergence; set-up: key: 0 is no effect; 10 is complete control; conditions: for Cocklebur plant response rating: Preemergence
From the text: as §1, §2

[4] = test system: giant foxtail (Setaria faberii); experiment: Test B pre-/postemergence; set-up: key: 0 is no effect; 10 is complete control
From the text: as §1, §2

[5] = test system: momingglory (Ipomoea hederacea); experiment: Test B pre-/postemergence; set-up: key: 0 is no effect; 10 is complete control
From the text: as §1, §2

corn (Zea mays) = experiment: Test B pre-/postemergence; set-up: key: 0 is no effect; 10 is complete control; conditions: for Corn plant response rating: Preemergence
From the text: as §1, §2

rape (Brassica napus) = experiment: Test B pre-/postemergence; set-up: key: 0 is no effect; 10 is complete control
From the text: as §1, §2

[6] = test system: bedstraw (Galium aparine); experiment: Test B pre-/postemergence; set-up: key: 0 is no effect; 10 is complete control; conditions: for Bedstraw plant response rating: Preemergence
From the text: as §1, §2

[7] = test system: pigweed (Amaranthus retroflexus); experiment: Test B pre-/postemergence; set-up: key: 0 is no effect; 10 is complete control
From the text: as §1, §2

[8] = test system: sugar beet (Beta vulgaris); experiment: Test B pre-/postemergence; set-up: key: 0 is no effect; 10 is complete control
From the text: as §1, §2

[9] = test system: purple nutsedge (Cyperus rotundus); experiment: Test B pre-/postemergence; set-up: key: 0 is no effect; 10 is complete control
From the text: as §1, §2

soybean (Glycine max) = experiment: Test B pre-/postemergence; set-up: key: 0 is no effect; 10 is complete control
From the text: as §1, §2

[10] = test system: broadleaf signalgrass (Brachiaria decumbens); experiment: Test B pre-/postemergence; set-up: key: 0 is no effect; 10 is complete control; conditions: for B. signalgrass plant response rating: Preemergence
From the text: as §1, §2

[11] = test system: velvetleaf (Abutilon theophrasti); experiment: Test B pre-/postemergence; set-up: key: 0 is no effect; 10 is complete control
From the text: as §1, §2

wild oat (Avena fatua) = experiment: Test B pre-/postemergence; set-up: key: 0 is no effect; 10 is complete control
From the text: as §1, §2

[12] = test system: wheat (Triticum aestivum); experiment: Test B pre-/postemergence; set-up: key: 0 is no effect; 10 is complete control
From the text: as §1, §2

rice (Oryza sativa) = experiment: Test B flood test
Outline: (§3)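 Flood test on plants grown to the 2-leaf stage; treated plants kept in greenhouse twelve to sixteen days, then visually rated against controls on a 0 (no effect) to 10 (complete control) scale.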

[13] = test system: smallflower flatsedge (Cyperus difformis); experiment: Test B flood test
Outline: as §3

[14] = test system: bamyardgrass (Echinochloa crus-galli); experiment: Test B flood test
Outline: as §3

[15] = test system: duck salad (Heteranthera limosa); experiment: Test B flood test
Outline: as §3

[16] = Rate 250 g/ha, Postemergence (so in the source)
[17] = Rate 62 g/ha, Postemergence (flood test)
[18] = Rate 125 g/ha, Postemergence section (flood test species)
[19] = Rate 250 g/ha, Postemergence (flood test species)
[20] = Rate 125 g/ha, Postemergence, flood test

Cc1cnc(-c2ccc(C#N)cc2)nc1Cc1cccc(C(F)(F)F)c1 [Compound 30]
Plant response rating, Crabgrass ([1]; Rate 62 g/ha, Postemergence): 1 | Crabgrass plant response rating ([1]; Rate 62 g/ha): 1 | Plant response rating, Crabgrass ([1]; Rate 125 g/ha, Postemergence): 1 | Crabgrass plant response rating ([1]; Rate 125 g/ha): 3 | Plant response rating, Crabgrass ([1]; Rate 250 g/ha, Postemergence): 7 | Plant response rating, Crabgrass [1, 16]: 8 | Plant response rating, Blackgrass ([2]; Rate 62 g/ha, Postemergence): 0 | Blackgrass plant response rating ([2]; Rate 62 g/ha): 0 | Plant response rating, Blackgrass ([2]; Rate 125 g/ha, Postemergence): 1 | Blackgrass plant response rating ([2]; Rate 125 g/ha): 2 | Plant response rating, Blackgrass ([2]; Rate 250 g/ha, Postemergence): 1 | Plant response rating, Blackgrass [2, 16]: 2 | Plant response rating, Cocklebur ([3]; Rate 62 g/ha, Postemergence): 5 | Cocklebur plant response rating ([3]; Rate 62 g/ha): 0 | Plant response rating, Cocklebur ([3]; Rate 125 g/ha, Postemergence): 8 | Cocklebur plant response rating ([3]; Rate 125 g/ha): 0 | Plant response rating, Cocklebur ([3]; Rate 250 g/ha, Postemergence): 8 | Plant response rating, Cocklebur [3, 16]: 0 | Plant response rating, Giant foxtail ([4]; Rate 62 g/ha, Postemergence): 1 | Giant foxtail plant response rating ([4]; Rate 62 g/ha, Preemergence): 1 | Giant foxtail plant response rating ([4]; Rate 125 g/ha, Postemergence): 1 | Giant foxtail plant response rating ([4]; Rate 125 g/ha, Preemergence): 5 | Plant response rating, Giant foxtail ([4]; Rate 250 g/ha, Postemergence): 2 | Plant response rating, Giant foxtail [4, 16]: 9 | Plant response rating, Morningglory ([5]; Rate 62 g/ha, Postemergence): 2 | Morningglory plant response rating ([5]; Rate 62 g/ha, Preemergence): 1 | Morningglory plant response rating ([5]; Rate 125 g/ha, Postemergence): 5 | Morningglory plant response rating ([5]; Rate 125 g/ha, Preemergence): 1 | Plant response rating, Morningglory ([5]; Rate 250 g/ha, Postemergence): 9 | Plant response rating, Morningglory [5, 16]: 3 | Plant response rating, Corn (corn (Zea mays); Rate 62 g/ha, Postemergence): 1 | Corn plant response rating (corn (Zea mays); Rate 62 g/ha): 0 | Plant response rating, Corn (corn (Zea mays); Rate 125 g/ha, Postemergence): 2 | Corn plant response rating (corn (Zea mays); Rate 125 g/ha): 0 | Plant response rating, Corn (corn (Zea mays); Rate 250 g/ha, Postemergence): 2 | Plant response rating, Corn (corn (Zea mays); [16]): 0 | Plant response rating, Rape (rape (Brassica napus); Rate 62 g/ha, Postemergence): 4 | Rape plant response rating (rape (Brassica napus); Rate 62 g/ha, Preemergence): 0 | Rape plant response rating (rape (Brassica napus); Rate 125 g/ha, Postemergence): 8 | Rape plant response rating (rape (Brassica napus); Rate 125 g/ha, Preemergence): 2 | Plant response rating, Rape (rape (Brassica napus); Rate 250 g/ha, Postemergence): 10 | Plant response rating, Rape (rape (Brassica napus); [16]): 3 | Plant response rating, Bedstraw ([6]; Rate 62 g/ha, Postemergence): 1 | Bedstraw plant response rating ([6]; Rate 62 g/ha): 3 | Plant response rating, Bedstraw ([6]; Rate 125 g/ha, Postemergence): 6 | Bedstraw plant response rating ([6]; Rate 125 g/ha): 10 | Plant response rating, Bedstraw ([6]; Rate 250 g/ha, Postemergence): 6 | Plant response rating, Bedstraw [6, 16]: 10 | Plant response rating, Redroot pigweed ([7]; Rate 62 g/ha, Postemergence): 7 | Redroot pigweed plant response rating ([7]; Rate 62 g/ha, Preemergence): 2 | Redroot pigweed plant response rating ([7]; Rate 125 g/ha, Postemergence): 9 | Redroot pigweed plant response rating ([7]; Rate 125 g/ha, Preemergence): 7 | Plant response rating, Redroot pigweed ([7]; Rate 250 g/ha, Postemergence): 9 | Plant response rating, Redroot pigweed [7, 16]: 10 | Plant response rating, Sugarbeets ([8]; Rate 62 g/ha, Postemergence): 10 | Sugarbeets plant response rating ([8]; Rate 62 g/ha, Preemergence): 6 | Sugarbeets plant response rating ([8]; Rate 125 g/ha, Postemergence): 10 | Plant response rating, Sugarbeets ([8]; Rate 125 g/ha, Preemergence): 9 | Plant response rating, Sugarbeets ([8]; Rate 250 g/ha, Postemergence): 10 | Plant response rating, Sugarbeets [8, 16]: 10 | Plant response rating, Nutsedge ([9]; Rate 62 g/ha, Postemergence): 0 | Nutsedge plant response rating ([9]; Rate 62 g/ha, Preemergence): 0 | Nutsedge plant response rating ([9]; Rate 125 g/ha, Postemergence): 0 | Nutsedge plant response rating ([9]; Rate 125 g/ha, Preemergence): 0 | Plant response rating, Nutsedge ([9]; Rate 250 g/ha, Postemergence): 2 | Plant response rating, Nutsedge [9, 16]: 0 | Plant response rating, Soybean (soybean (Glycine max); Rate 62 g/ha, Postemergence): 3 | Soybean plant response rating (soybean (Glycine max); Rate 62 g/ha, Preemergence): 0 | Soybean plant response rating (soybean (Glycine max); Rate 125 g/ha, Postemergence): 3 | Plant response rating, Soybean (soybean (Glycine max); Rate 125 g/ha, Preemergence): 0 | Plant response rating, Soybean (soybean (Glycine max); Rate 250 g/ha, Postemergence): 6 | Plant response rating, Soybean (soybean (Glycine max); [16]): 0 | Plant response rating, B. signalgrass ([10]; Rate 62 g/ha, Postemergence): 1 | B. signalgrass plant response rating ([10]; Rate 62 g/ha): 1 | Plant response rating, B. signalgrass ([10]; Rate 125 g/ha, Postemergence): 2 | B. signalgrass plant response rating ([10]; Rate 125 g/ha): 4 | Plant response rating, B. signalgrass ([10]; Rate 250 g/ha, Postemergence): 2 | Plant response rating, B. signalgrass ([10]; Rate 250 g/ha, Postemergence as printed in head r139 (second section for compounds 26-50)): 6 | Plant response rating, Velvetleaf ([11]; Rate 62 g/ha, Postemergence): 5 | Velvetleaf plant response rating ([11]; Rate 62 g/ha, Preemergence): 1 | Velvetleaf plant response rating ([11]; Rate 125 g/ha, Postemergence): 6 | Plant response rating, Velvetleaf ([11]; Rate 125 g/ha, Preemergence): 2 | Plant response rating, Velvetleaf ([11]; Rate 250 g/ha, Postemergence): 8 | Plant response rating, Velvetleaf [11, 16]: 6 | Wild oats plant response rating (wild oat (Avena fatua); Rate 62 g/ha, Postemergence): 1 | Wild oats plant response rating (wild oat (Avena fatua); Rate 62 g/ha, Preemergence): 1 | Wild oats plant response rating (wild oat (Avena fatua); Rate 125 g/ha, Postemergence): 2 | Plant response rating, Wild oats (wild oat (Avena fatua); Rate 125 g/ha, Preemergence): 1 | Plant response rating, Wild oats (wild oat (Avena fatua); Rate 250 g/ha, Postemergence): 2 | Plant response rating, Wild oats (wild oat (Avena fatua); [16]): 2 | Wheat plant response rating ([12]; Rate 62 g/ha, Postemergence): 1 | Wheat plant response rating ([12]; Rate 62 g/ha, Preemergence): 0 | Wheat plant response rating ([12]; Rate 125 g/ha, Postemergence): 2 | Plant response rating, Wheat ([12]; Rate 125 g/ha, Preemergence): 0 | Plant response rating, Wheat ([12]; Rate 250 g/ha, Postemergence): 2 | Plant response rating, Wheat [12, 16]: 0 | Plant response rating, Rice (rice (Oryza sativa); [17]): 1 | Rice plant response rating (rice (Oryza sativa); [18]): 1 | Plant response rating, Rice (rice (Oryza sativa); [19]): 2 | Plant response rating, S. Flatsedge [13, 17]: 4 | S. Flatsedge plant response rating [13, 18]: 6 | Plant response rating, S. Flatsedge [13, 19]: 8 | Plant response rating, Barnyardgrass [14, 17]: 3 | Plant response rating, Barnyardgrass [14, 20]: 3 | Plant response rating, Barnyardgrass [14, 19]: 4 | Plant response rating, Ducksalad [15, 17]: 3 | Plant response rating, Ducksalad [15, 20]: 4 | Plant response rating, Ducksalad [15, 19]: 5
